Results: US20040214798A1 (priority 2003, published 2004)
Several values for one entry are separate records, joined by “and”; a condition that tells them apart may be missing. Identical values can stand only once. Like-named read-outs stand apart in the source and are kept apart here.

Tests used:
hDT7 cells = assay: cells; format: cell-based, Chinese hamster; conditions: read-out: IC50 hDT7
T116 cells = assay: cells; format: cell-based, Chinese hamster
[1] = test system: SKOV3 human ovarian carcinoma cells not infected (NR−); assay: cells; format: cell-based
[2] = test system: SKOV3 human ovarian carcinoma cells infected with adenovirus expressing E. coli nitroreductase (NR+); assay: Cytotoxicity in SKOV3 cells infected with adenovirus expressing E. coli nitroreductase (NR+), MTT; format: cell-based; conditions: for IC50: adenovirus NR, 100 pfu/cell; for Ratio of IC50 values (NR−/NR+): SKOV3, 18 hour drug exposure
F179 cells [3] = assay: cells; conditions: Cricetulus griseus, read-out: IC50 F179
E. coli nitroreductase [4] = target: T1, E. coli nitroreductase (Escherichia coli, UniProt P38489); assay: in vitro; conditions: pH 7
T1 sequence (P38489 whole entry): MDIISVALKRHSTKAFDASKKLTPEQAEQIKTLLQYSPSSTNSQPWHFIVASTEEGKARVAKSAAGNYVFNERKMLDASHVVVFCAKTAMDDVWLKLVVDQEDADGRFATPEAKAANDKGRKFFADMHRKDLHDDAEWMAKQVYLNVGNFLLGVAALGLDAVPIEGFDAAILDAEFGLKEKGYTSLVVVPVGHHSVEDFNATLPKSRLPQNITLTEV

E. coli nitroreductase [5] = target: T1, E. coli nitroreductase; format: biochemical
E. coli nitroreductase [6] = target: T1, E. coli nitroreductase; conditions: pH 7
F179 cells [7] = conditions: read-out: IC50 F179
[8] = Cricetulus griseus, V79, 1 h, read-out: IC50 T116
[9] = Cricetulus griseus, V79, 72 h, read-out: IC50 T116
[10] = Homo sapiens, SK-OV-3, 18 h, read-out: IC50 in SKOV3 NR+, 18 hour drug exposure
[11] = 200 μM compound, 1 mM NADH, 1.8 μg E. coli nitroreductase, 10 mM phosphate buffer pH 7.0, 37° C., 250 μL, UV 340 nm
[12] = 18 hour drug exposure; uninfected cells; read-out: IC50 in SKOV3 NR−
[13] = 18 hour drug exposure, read-out: IC50 in SKOV3 NR+
[14] = 72 hours drug exposure, human NQO1-expressing cells
[15] = 72 hours drug exposure, E. coli nitroreductase-expressing cells, read-out: IC50 T116
[16] = 72 hours drug exposure, vector-only control cells
[17] = Homo sapiens, SK-OV-3, 18 h, read-out: IC50 in SKOV3 NR−
[18] = read-out: IC50 in SKOV3 NR+, 18 hour drug exposure

Row | SMILES | IC50 [2, 10] [µM] | NR Assay vi (initial velocity) (E. coli nitroreductase [5]; [11]) [nmol/min] | IC50 [2, 13] [µM] | Ratio of IC50 values (NR−/NR+) [2] | NR assay t1/2 (half-life of reduction by E. coli nitroreductase) (E. coli nitroreductase [6]) [min] | Ratio of IC50 values (F179/T116) (T116 cells) | IC50 [1, 17] [µM] | also measured
1 | NC(=O)c1cc(N2CC2)c([N+](=O)[O-])cc1[N+](=O)[O-] [CB1954, 5-(aziridin-1-yl)-2,4-dinitrobenzamide, reference compound] | 4 | – | – | – | – | – | – | IC50 (hDT7 cells; Cricetulus griseus, V79, 72 h): 1.7 µM; IC50 (T116 cells; [8]): 0.306 µM; IC50 (T116 cells; [9]): 0.036 µM; IC50 ([1]; Homo sapiens, SK-OV-3; 18 hour drug exposure; uninfected cells; read-out: IC50 in SKOV3 NR−): 600 µM; IC50 (F179 cells [3]; 1 h): > 100 µM; IC50 (F179 cells [3]; 72 h): 254 µM; half-life (E. coli nitroreductase [4]; E. coli): 5 min
2 | O=[N+]([O-])c1ccc([C@@H]2CCN[P@](=O)(N(CCCl)CCCl)O2)cc1 [cis-13c, 2-[Bis(2-chloroethyl)amino]-6-(p-nitrophenyl)-2H-1,3,2-oxazaphosphorinane 2-oxide] | – | 2.33 | 4.5 | 151 | 5.2 | – | – | IC50 (hDT7 cells): > 100 µM; IC50 [1, 12]: 680 µM
3 | O=[N+]([O-])c1ccc([C@H]2CCO[P@@](=O)(N(CCCl)CCCl)N2)cc1 [trans-13b, 2-[Bis(2-chloroethyl)amino]-4-(p-nitrophenyl)-2H-1,3,2-oxazaphosphorinane 2-oxide] | – | – | 250 | 3.3 | 2.9 | >1.9 | – | IC50 (hDT7 cells; [14]): > 100 µM; IC50 (T116 cells; [15]): 51.5 µM; IC50 ([1]; read-out: IC50 in SKOV3 NR−): 820 µM; IC50 (F179 cells [7]; [16]): > 100 µM
4 | COc1cc(COP(N)(=O)N(CCCl)CCCl)ccc1[N+](=O)[O-] (stereo not shown) [Compound 15h, 3-methoxy-4-nitrobenzyl N,N-bis(2-chloroethyl)phosphordiamidate] | 3.1 | 4.40 | – | 294 | – | – | 910 | –
5 | O=[N+]([O-])c1ccc([C@H]2CCN[P@@](=O)(N(CCCl)CCCl)N2)cc1 [cis-13d, 2-[Bis(2-chloroethyl)amino]-4-(p-nitrophenyl)-2H-1,3,2-diazaphosphorinane 2-oxide] | – | – | – | – | 6.4 | 12.3 | – | IC50 (hDT7 cells): 46.8 µM; IC50 (T116 cells; read-out: IC50 T116): 4.6 µM; IC50 (F179 cells [7]): 56.8 µM
6 | O=[N+]([O-])c1ccc2c(c1)OP(=O)(N(CCCl)CCCl)NC2 (stereo not shown) [Compound 9b, 7-Nitro-2-[bis(2-chloroethyl)amino]-1,3,2-benzoxazaphosphorinane-2-oxide] | 410 | – | – | 1.2 | – | 1.3 | 510 | IC50 (hDT7 cells; Cricetulus griseus, V79, 72 h): 48 µM; IC50 (T116 cells; [9]): 48 µM; IC50 (F179 cells [3]; 72 h): 61 µM; half-life (E. coli nitroreductase [4]): 11 min
7 | O=[N+]([O-])c1ccc2c(c1)NP(=O)(N(CCCl)CCCl)NC2 (stereo not shown) [Compound 9d, 7-Nitro-2-[bis(2-chloroethyl)amino]-1,3,2-benzodiazaphosphorinane-2-oxide] | – | – | – | – | – | ˜1 | – | IC50 (hDT7 cells; Cricetulus griseus, V79, 72 h): > 100 µM; IC50 (T116 cells; [9]): > 100 µM; IC50 (F179 cells [3]; 72 h): > 100 µM; half-life (E. coli nitroreductase [4]): 7.8 min
8 | O=[N+]([O-])c1ccc([C@H]2CCO[P@@](=O)(N(CCCl)CCCl)N2)cc1 [cis-13b, 2-[Bis(2-chloroethyl)amino]-4-(p-nitrophenyl)-2H-1,3,2-oxazaphosphorinane 2-oxide] | – | – | 510 | >2 | 11.9 | >2.2 | – | IC50 (hDT7 cells): > 100 µM; IC50 (T116 cells; read-out: IC50 T116): 45.3 µM; IC50 [1, 12]: > 1000 µM; IC50 (F179 cells [7]): > 100 µM
9 | CC(OP(N)(=O)N(CCCl)CCCl)c1ccc([N+](=O)[O-])cc1 (single isomer, unassigned) [Compound 15d-B, 1-(4-nitrophenyl)ethyl N,N-bis(2-chloroethyl)phosphordiamidate] | – | 1.65 | – | >250 | – | – | – | IC50 ([1]; read-out: IC50 in SKOV3 NR−; 18 hour drug exposure; uninfected cells): > 1000 µM; IC50 [2, 18]: 4 µM
10 | CC(OP(N)(=O)N(CCCl)CCCl)c1ccc([N+](=O)[O-])cc1 (single isomer, unassigned) [Compound 15d-A, 1-(4-nitrophenyl)ethyl N,N-bis(2-chloroethyl)phosphordiamidate] | – | 2.53 | – | >556 | – | – | > 1000 | IC50 [2, 18]: 1.8 µM
11 | O=[N+]([O-])c1ccc2c(c1)NP(=O)(N(CCCl)CCCl)OC2 (stereo not shown) [Compound 9c, 7-Nitro-2-[bis(2-chloroethyl)amino]-3,1,2-benzoxazaphosphorinane-2-oxide] | 55 | 1.63 | – | 9.8 | – | >33 | 540 | IC50 (hDT7 cells; Cricetulus griseus, V79, 72 h): > 100 µM; IC50 (T116 cells; [9]): 3 µM; IC50 (F179 cells [3]; 72 h): > 100 µM; half-life (E. coli nitroreductase [4]): 13 min
12 | NP(=O)(OCc1ccccc1[N+](=O)[O-])N(CCCl)CCCl (stereo not shown) [Compound 15a, 2-nitrobenzyl N,N-bis(2-chloroethyl)phosphordiamidate] | 90 | 0.46 | – | 11 | – | – | 950 | –
13 | O=[N+]([O-])c1ccc([C@@H]2CCN[P@](=O)(N(CCCl)CCCl)O2)cc1 [trans-13c, 2-[Bis(2-chloroethyl)amino]-6-(p-nitrophenyl)-2H-1,3,2-oxazaphosphorinane 2-oxide] | – | – | 5 | >200 | 3.9 | 22,519 | – | NR Assay vi (initial velocity) (E. coli nitroreductase [5]; pH 7): 3.54 nmol/min; IC50 (hDT7 cells; [14]): > 100 µM; Ratio of IC50 values (F179/T116) (T116 cells; 1 hour drug exposure): >602; IC50 (T116 cells; 1 hour drug exposure, read-out: IC50 T116): 0.166 µM; IC50 (T116 cells; [15]): 0.027 µM; IC50 ([1]; read-out: IC50 in SKOV3 NR−): > 1000 µM; IC50 (F179 cells [7]; 1 hour drug exposure): > 100 µM
14 | NC(=O)c1cc(COP(N)(=O)N(CCCl)CCCl)ccc1[N+](=O)[O-] (stereo not shown) [Compound 15e, 3-carboxamide-4-nitrobenzyl N,N-bis(2-chloroethyl)phosphordiamidate] | – | 0.38 | 41 | >24 | – | – | – | IC50 [1, 12]: > 1000 µM
15 | NP(=O)(OCc1ccc([N+](=O)[O-])cc1)N(CCCl)CCCl (stereo not shown) [Compound 15c, 4-nitrobenzyl N,N-bis(2-chloroethyl)phosphordiamidate] | 1.1 | 2.31 | – | >909 | – | 20,833 and >10,000 | > 1000 | IC50 (hDT7 cells; Cricetulus griseus, V79, 72 h): 27 µM; IC50 (T116 cells; [8]): 0.01 µM; IC50 (T116 cells; Cricetulus griseus, V79, 1 h, read-out: IC50 in E. coli nitroreductase-expressing T116 cells): 0.01 µM; IC50 (T116 cells; [9]): 0.003 µM; IC50 (T116 cells; Cricetulus griseus, V79, 72 h, read-out: IC50 in E. coli nitroreductase-expressing T116 cells): 0.003 µM; IC50 (F179 cells [3]; 1 h): > 100 µM; IC50 (F179 cells [3]; 72 h): 62.5 µM
16 | Cc1cc(COP(N)(=O)N(CCCl)CCCl)ccc1[N+](=O)[O-] (stereo not shown) [Compound 15g, 3-methyl-4-nitrobenzyl N,N-bis(2-chloroethyl)phosphordiamidate] | 3.3 | 1.61 | – | 155 | – | – | 510 | –
17 | COc1cc([N+](=O)[O-])ccc1COP(N)(=O)N(CCCl)CCCl (stereo not shown) [Compound 15i, 2-methoxy-4-nitrobenzyl N,N-bis(2-chloroethyl)phosphordiamidate] | 1.8 | 12.56 | – | >556 | – | – | > 1000 | –
18 | NP(=O)(OCc1cccc([N+](=O)[O-])c1)N(CCCl)CCCl (stereo not shown) [Compound 15b, 3-nitrobenzyl N,N-bis(2-chloroethyl)phosphordiamidate] | 240 | 1.23 | – | 3.4 | – | – | 820 | –
19 | O=[N+]([O-])c1ccc([C@H]2CCN[P@@](=O)(N(CCCl)CCCl)N2)cc1 [trans-13d, 2-[Bis(2-chloroethyl)amino]-4-(p-nitrophenyl)-2H-1,3,2-diazaphosphorinane 2-oxide] | – | – | – | – | 4.2 | >2.1 | – | IC50 (hDT7 cells; [14]): > 100 µM; IC50 (T116 cells; [15]): 48.3 µM; IC50 (F179 cells [7]; [16]): > 100 µM
20 | COC(=O)c1cc(COP(N)(=O)N(CCCl)CCCl)ccc1[N+](=O)[O-] (stereo not shown) [Compound 15f, 3-methoxycarbonyl-4-nitrobenzyl N,N-bis(2-chloroethyl) phosphordiamidate] | – | 0.30 | 2.1 | 190 | – | – | – | IC50 [1, 12]: 400 µM
